Test results from US20260022142A1, “MACROCYCLIC IMMUNOMODULATORS” (Bristol-Myers Squibb Company, priority 2022, published 2026).
Bridge positions count the residues as written; N and C are the ends. Square brackets hold non-standard residues; d marks the D form. Peptide text beside a SMILES is read from it. * marks the point of attachment. Bip = N[C@@H](Cc1ccc(-c2ccccc2)cc1)C(=O)O; Phe(3-Me) = Cc1cccc(C[C@H](N)C(=O)O)c1; Cha = N[C@@H](CC1CCCCC1)C(=O)O; Cit = NC(=O)NCCC[C@H](N)C(=O)O; Pen = CC(C)(S)[C@H](N)C(=O)O; Dap(Me) = CNC[C@H](N)C(=O)O; hCys = N[C@@H](CCS)C(=O)O; Carboxymethyl = O=C(O)C*; NMeA = CN[C@@H](C)C(=O)O; Orn = NCCC[C@H](N)C(=O)O; Aun = NCCCCCCCCCCC(=O)O; Dab = NCC[C@H](N)C(=O)O; Dap = NC[C@H](N)C(=O)O; Aib = CC(C)(N)C(=O)O

Molecular target: T1, PD-1/PD-L1 interaction (PE-labeled human PD-L1-Ig binding to Jurkat cell line over-expressing human PD-1) (Homo sapiens, UniProt Q15116)
T1 construct: expressed in transfected cells; host or cells: Jurkat
T1 sequence (Q15116 25-288): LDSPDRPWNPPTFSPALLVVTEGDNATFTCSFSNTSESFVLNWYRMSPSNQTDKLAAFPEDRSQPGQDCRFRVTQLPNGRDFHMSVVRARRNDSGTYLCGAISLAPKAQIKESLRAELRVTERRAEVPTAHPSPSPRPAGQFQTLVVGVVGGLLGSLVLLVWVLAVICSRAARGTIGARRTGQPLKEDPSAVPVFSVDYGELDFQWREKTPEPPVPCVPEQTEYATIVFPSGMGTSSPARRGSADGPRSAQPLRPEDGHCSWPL
Experiment: Jurkat-PD-1 Cell Binding High-Content Screening Assay (CBA)
Assay type: cell-based
Details: Jurkat cell line over-expressing human PD-1; PE-labeled PD-L1-Ig 20 nM final; read-out: Jurkat hPD1-PDL1 IC50
Method in brief: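 Binding of fluorescent PD-L1-Ig (phycoerythrin on Ig tag, 20 nM final, 1 h) measured by high-content imaging of fixed, Hoechst-counterstained Jurkat-hPD-1 cells. Compound added 2 h at 37° C beforehand, in DMEM with 10% fetal calf serum.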

| SMILES | IC50 |
| --- | --- |
| Cc1cccc(C[C@@H]2NC(=O)[C@H](CC(=O)O)NC(=O)[C@H](Cc3ccc(OCC(=O)O)cc3)NC(=O)[C@H](CCCNC(=N)N)NC(=O)CSC[C@@H](C(=O)N[C@@H](CCN)C(=O)NCCCCCCCCCCC(=O)O)NC(=O)[C@H]([C@@H](C)O)NC(=O)[C@H](C(C)C)NC(=O)[C@H](CC3CCCCC3)NC(=O)[C@H](CCN)NC(=O)[C@@H](CC(C)C)NC(=O)[C@H](CCN)NC(=O)[C@H](CCCNC(N)=O)NC(=O)[C@H](Cc3ccc(-c4ccccc4)cc3)NC(=O)[C@H](C(C)C)NC2=O)c1 [Compound 2777] ({CH2CO}-RY(Carboxymethyl)D[Phe(3-Me)]V[Bip][Cit][Dab][dL][Dab][Cha]VTC[Dab][Aun]-OH; thioether N-14) | 20.1 nM |
| Cc1cccc(C[C@@H]2NC(=O)[C@H](CC(=O)O)NC(=O)[C@H](Cc3ccc(OCC(=O)O)cc3)NC(=O)[C@H](CCCNC(=N)N)NC(=O)CSC[C@@H](C(=O)N[C@@H](CCN)C(=O)NCCCCCCCCCCC(=O)O)NC(=O)[C@H](CCC(=O)O)NC(=O)[C@H](C(C)C)NC(=O)[C@H](CC3CCCCC3)NC(=O)[C@H](CCN)NC(=O)[C@@H](CC(C)C)NC(=O)[C@H](CCN)NC(=O)[C@H](CCCNC(N)=O)NC(=O)[C@H](Cc3ccc(-c4ccccc4)cc3)NC(=O)[C@H](C(C)C)NC2=O)c1 [Compound 2778] ({CH2CO}-RY(Carboxymethyl)D[Phe(3-Me)]V[Bip][Cit][Dab][dL][Dab][Cha]VEC[Dab][Aun]-OH; thioether N-14) | 8.9 nM |
| Cc1cccc(C[C@@H]2NC(=O)[C@H](CC(=O)O)NC(=O)[C@H](Cc3ccc(OCC(=O)O)cc3)NC(=O)[C@H](CCCNC(=N)N)NC(=O)CSC[C@@H](C(=O)N[C@@H](CCCN)C(=O)NCCCCCCCCCCC(=O)O)NC(=O)[C@H](CCC(=O)O)NC(=O)[C@H](C(C)C)NC(=O)[C@H](CC3CCCCC3)NC(=O)[C@H](CCN)NC(=O)[C@@H](CC(C)C)NC(=O)[C@H](CCN)NC(=O)[C@H](CCCNC(N)=O)NC(=O)[C@H](Cc3ccc(-c4ccccc4)cc3)NC(=O)[C@H](C(C)C)NC2=O)c1 [Compound 2780] ({CH2CO}-RY(Carboxymethyl)D[Phe(3-Me)]V[Bip][Cit][Dab][dL][Dab][Cha]VEC[Orn][Aun]-OH; thioether N-14) | 6.7 nM |
| Cc1cccc(C[C@@H]2NC(=O)[C@H](CC(=O)O)NC(=O)[C@H](Cc3ccc(OCC(=O)O)cc3)NC(=O)[C@H](CN)NC(=O)CSCC[C@@H](C(=O)N[C@@H](C)C(=O)N[C@@H](CCC(=O)O)C(=O)NCCCCCCCCCCC(=O)O)NC(=O)[C@H]([C@@H](C)O)NC(=O)[C@H](C(C)C)NC(=O)[C@H](CC3CCCCC3)NC(=O)[C@H](CCN)NC(=O)[C@@H](CC(C)C)NC(=O)[C@H](CCCN)NC(=O)[C@H](CCCNC(N)=O)NC(=O)[C@H](Cc3ccc(-c4ccccc4)cc3)NC(=O)[C@H](C(C)C)NC2=O)c1 [Compound 2781] ({CH2CO}-[Dap]Y(Carboxymethyl)D[Phe(3-Me)]V[Bip][Cit][Orn][dL][Dab][Cha]VT[hCys]AE[Aun]-OH; thioether N-14) | 74.3 nM |
| Cc1cccc(C[C@@H]2NC(=O)[C@H](CC(=O)O)NC(=O)[C@H](Cc3ccc(OCC(=O)O)cc3)NC(=O)[C@H](CN)NC(=O)CSC(C)(C)[C@@H](C(=O)N[C@@H](C)C(=O)N[C@@H](CCC(=O)O)C(=O)NCCCCCCCCCCC(=O)O)NC(=O)[C@H]([C@@H](C)O)NC(=O)[C@H](C(C)C)NC(=O)[C@H](CC3CCCCC3)NC(=O)[C@H](CCN)NC(=O)[C@@H](CC(C)C)NC(=O)[C@H](CCCN)NC(=O)[C@H](CCCNC(N)=O)NC(=O)[C@H](Cc3ccc(-c4ccccc4)cc3)NC(=O)[C@H](C(C)C)NC2=O)c1 [Compound 2782] ({CH2CO}-[Dap]Y(Carboxymethyl)D[Phe(3-Me)]V[Bip][Cit][Orn][dL][Dab][Cha]VT[Pen]AE[Aun]-OH; thioether N-14) | 336 nM |
| Cc1cccc(C[C@@H]2NC(=O)[C@H](CC(=O)O)NC(=O)[C@H](Cc3ccc(OCC(=O)O)cc3)NC(=O)[C@H](CN)NC(=O)CSC[C@@H](C(=O)N(C)[C@@H](C)C(=O)N[C@@H](CCC(=O)O)C(=O)NCCCCCCCCCCC(=O)O)NC(=O)[C@H]([C@@H](C)O)NC(=O)[C@H](C(C)C)NC(=O)[C@H](CC3CCCCC3)NC(=O)[C@H](CCN)NC(=O)[C@@H](CC(C)C)NC(=O)[C@H](CCCN)NC(=O)[C@H](CCCNC(N)=O)NC(=O)[C@H](Cc3ccc(-c4ccccc4)cc3)NC(=O)[C@H](C(C)C)NC2=O)c1 [Compound 2783] ({CH2CO}-[Dap]Y(Carboxymethyl)D[Phe(3-Me)]V[Bip][Cit][Orn][dL][Dab][Cha]VTC[NMeA]E[Aun]-OH; thioether N-14) | 368 nM |
| Cc1cccc(C[C@@H]2NC(=O)[C@H](CC(=O)O)NC(=O)[C@H](Cc3ccc(OCC(=O)O)cc3)NC(=O)[C@H](CN)NC(=O)CSC[C@@H](C(=O)NC(C)(C)C(=O)N[C@@H](CCC(=O)O)C(=O)NCCCCCCCCCCC(=O)O)NC(=O)[C@H]([C@@H](C)O)NC(=O)[C@H](C(C)C)NC(=O)[C@H](CC3CCCCC3)NC(=O)[C@H](CCN)NC(=O)[C@@H](CC(C)C)NC(=O)[C@H](CCCN)NC(=O)[C@H](CCCNC(N)=O)NC(=O)[C@H](Cc3ccc(-c4ccccc4)cc3)NC(=O)[C@H](C(C)C)NC2=O)c1 [Compound 2784] ({CH2CO}-[Dap]Y(Carboxymethyl)D[Phe(3-Me)]V[Bip][Cit][Orn][dL][Dab][Cha]VTC[Aib]E[Aun]-OH; thioether N-14) | 21.8 nM |
| CC(C)C[C@H]1NC(=O)[C@H](CCCN)NC(=O)[C@H](C(C)C)NC(=O)[C@H](Cc2ccc(-c3ccccc3)cc2)NC(=O)[C@H](C(C)C)NC(=O)[C@H](Cc2c[nH]c3ccccc23)NC(=O)[C@H](CC(=O)O)NC(=O)[C@H](Cc2ccc(OCC(=O)O)cc2)NC(=O)[C@H](Cc2c[nH]cn2)NC(=O)CSC[C@@H](C(=O)N[C@H](C)C(=O)N[C@@H](CCC(=O)O)C(=O)NCCCCCCCCCCC(=O)O)NC(=O)[C@H]([C@@H](C)O)NC(=O)[C@H](C(C)C)NC(=O)[C@H](CC2CCCCC2)NC(=O)[C@H](CCN)NC1=O [Compound 2785] ({CH2CO}-HY(Carboxymethyl)DWV[Bip]V[Orn][dL][Dab][Cha]VTC[dA]E[Aun]-OH; thioether N-14) | 16.1 nM |
| CNC[C@H](NC(=O)[C@@H]1CSCC(=O)N[C@@H](CN)C(=O)N[C@@H](Cc2ccc(OCC(=O)O)cc2)C(=O)N[C@@H](CC(=O)O)C(=O)N[C@@H](Cc2cccc(C)c2)C(=O)N[C@@H](C(C)C)C(=O)N[C@@H](Cc2ccc(-c3ccccc3)cc2)C(=O)N[C@@H](CCCNC(N)=O)C(=O)N[C@@H](CCCN)C(=O)N[C@H](CC(C)C)C(=O)N[C@@H](CCN)C(=O)N[C@@H](CC2CCCCC2)C(=O)N[C@@H](C(C)C)C(=O)N[C@@H]([C@@H](C)O)C(=O)N1)C(=O)NCCCCCCCCCCC(=O)O [Compound 2787] ({CH2CO}-[Dap]Y(Carboxymethyl)D[Phe(3-Me)]V[Bip][Cit][Orn][dL][Dab][Cha]VTC[Dap(Me)][Aun]-OH; thioether N-14) | 28.3 nM |
| CC(C)C[C@H]1NC(=O)[C@H](CCCN)NC(=O)[C@H](C(C)C)NC(=O)[C@H](Cc2ccc(-c3ccccc3)cc2)NC(=O)[C@H](C(C)C)NC(=O)[C@H](Cc2c[nH]c3ccccc23)NC(=O)[C@H](CC(=O)O)NC(=O)[C@H](Cc2ccc(OCC(=O)O)cc2)NC(=O)[C@H](CN)NC(=O)CSC[C@@H](C(=O)N[C@@H](CCN)C(=O)NCCCCCCCCCCC(=O)O)NC(=O)[C@H](CCC(=O)O)NC(=O)[C@H](C(C)C)NC(=O)[C@H](CC2CCCCC2)NC(=O)[C@H](Cc2c[nH]cn2)NC1=O [Compound 2788] ({CH2CO}-[Dap]Y(Carboxymethyl)DWV[Bip]V[Orn][dL]H[Cha]VEC[Dab][Aun]-OH; thioether N-14) | 22.3 nM |
| Cc1cccc(C[C@@H]2NC(=O)[C@H](CC(=O)O)NC(=O)[C@H](Cc3ccc(O)cc3)NC(=O)[C@H](CC(N)=O)NC(=O)CSC[C@@H](C(=O)N[C@@H](CCN)C(=O)NCCCCCCCCCCC(=O)O)NC(=O)[C@H](CCC(N)=O)NC(=O)[C@H](C(C)C)NC(=O)[C@H](CC(C)C)NC(=O)[C@H](CCN)NC(=O)[C@@H](CC(C)C)NC(=O)[C@H](CCCN)NC(=O)[C@H](CCCNC(N)=O)NC(=O)[C@H](Cc3ccc(-c4ccccc4)cc3)NC(=O)[C@H](C(C)C)NC2=O)c1 [Compound 2789] ({CH2CO}-NYD[Phe(3-Me)]V[Bip][Cit][Orn][dL][Dab]LVQC[Dab][Aun]-OH; thioether N-14) | 23.8 nM |
| Cc1cccc(C[C@@H]2NC(=O)[C@H](CC(=O)O)NC(=O)[C@H](Cc3ccc(O)cc3)NC(=O)[C@H](CC(N)=O)NC(=O)CSC[C@@H](C(=O)N[C@@H](CCCN)C(=O)NCCCCCCCCCCC(=O)O)NC(=O)[C@H](CCC(N)=O)NC(=O)[C@H](C(C)C)NC(=O)[C@H](CC(C)C)NC(=O)[C@H](CCN)NC(=O)[C@@H](CC(C)C)NC(=O)[C@H](CCCN)NC(=O)[C@H](CCCNC(N)=O)NC(=O)[C@H](Cc3ccc(-c4ccccc4)cc3)NC(=O)[C@H](C(C)C)NC2=O)c1 [Compound 2790] ({CH2CO}-NYD[Phe(3-Me)]V[Bip][Cit][Orn][dL][Dab]LVQC[Orn][Aun]-OH; thioether N-14) | 71.1 nM |
| Cc1cccc(C[C@@H]2NC(=O)[C@H](CC(=O)O)NC(=O)[C@H](Cc3ccc(O)cc3)NC(=O)[C@H](CC(N)=O)NC(=O)CSC[C@@H](C(=O)N[C@@H](CCN)C(=O)NCCCCCCCCCCC(=O)O)NC(=O)[C@@H](CCC(N)=O)NC(=O)[C@H](C(C)C)NC(=O)[C@H](CC(C)C)NC(=O)[C@H](CCN)NC(=O)[C@@H](CC(C)C)NC(=O)[C@H](CCCN)NC(=O)[C@H](CCCNC(N)=O)NC(=O)[C@H](Cc3ccc(-c4ccccc4)cc3)NC(=O)[C@H](C(C)C)NC2=O)c1 [Compound 2791] ({CH2CO}-NYD[Phe(3-Me)]V[Bip][Cit][Orn][dL][Dab]LV[dQ]C[Dab][Aun]-OH; thioether N-14) | 36.7 nM |
